Laboratory results from ChEMBL document CHEMBL4020846 (J Med Chem, 2018).
Activity calls are given as the source filed them. The rule behind the calls is not given here.

Columns and labels:
PBMC [1] = test: Immunostimulatory activity in human PBMC assessed as increase in TNF-alpha release at 2 uM after 18 hrs by flow cytometry; format: functional, cell-based
PBMC [2] = test: Immunostimulatory activity in human PBMC assessed as increase in IFNgamma release at 2 uM after 18 hrs in presence of LPS by flow cytometry; format: functional, cell-based
PBMC [3] = test: Immunostimulatory activity in human PBMC assessed as increase in IL-6 release at 2 uM after 18 hrs in presence of LPS by flow cytometry relative to control; format: functional
PBMC [4] = test: Immunostimulatory activity in human PBMC assessed as increase in IL-10 release at 2 uM after 18 hrs in presence of LPS by flow cytometry relative to control; format: functional
[5] = Drug uptake in HEK293 cells cytosol at 2 uM after 18 hrs by LC-MS analysis; format: ADME, cell-based; conditions: human
PBMC [6] = test: Immunostimulatory activity in human PBMC assessed as increase in IL-17A release at 2 uM after 18 hrs in presence of LPS by flow cytometry; format: functional, cell-based
[7] = target: T1, Nucleotide-binding oligomerization domain-containing protein 1 (Homo sapiens) (UniProt Q9Y239); test: Agonist activity at human NOD1 expressed in HEK-Blue cells assessed as induction of NF-kB transcriptional activity at 20 uM after 18 hrs by SEAP reporter gene assay; format: cell-based
T1 sequence (whole entry): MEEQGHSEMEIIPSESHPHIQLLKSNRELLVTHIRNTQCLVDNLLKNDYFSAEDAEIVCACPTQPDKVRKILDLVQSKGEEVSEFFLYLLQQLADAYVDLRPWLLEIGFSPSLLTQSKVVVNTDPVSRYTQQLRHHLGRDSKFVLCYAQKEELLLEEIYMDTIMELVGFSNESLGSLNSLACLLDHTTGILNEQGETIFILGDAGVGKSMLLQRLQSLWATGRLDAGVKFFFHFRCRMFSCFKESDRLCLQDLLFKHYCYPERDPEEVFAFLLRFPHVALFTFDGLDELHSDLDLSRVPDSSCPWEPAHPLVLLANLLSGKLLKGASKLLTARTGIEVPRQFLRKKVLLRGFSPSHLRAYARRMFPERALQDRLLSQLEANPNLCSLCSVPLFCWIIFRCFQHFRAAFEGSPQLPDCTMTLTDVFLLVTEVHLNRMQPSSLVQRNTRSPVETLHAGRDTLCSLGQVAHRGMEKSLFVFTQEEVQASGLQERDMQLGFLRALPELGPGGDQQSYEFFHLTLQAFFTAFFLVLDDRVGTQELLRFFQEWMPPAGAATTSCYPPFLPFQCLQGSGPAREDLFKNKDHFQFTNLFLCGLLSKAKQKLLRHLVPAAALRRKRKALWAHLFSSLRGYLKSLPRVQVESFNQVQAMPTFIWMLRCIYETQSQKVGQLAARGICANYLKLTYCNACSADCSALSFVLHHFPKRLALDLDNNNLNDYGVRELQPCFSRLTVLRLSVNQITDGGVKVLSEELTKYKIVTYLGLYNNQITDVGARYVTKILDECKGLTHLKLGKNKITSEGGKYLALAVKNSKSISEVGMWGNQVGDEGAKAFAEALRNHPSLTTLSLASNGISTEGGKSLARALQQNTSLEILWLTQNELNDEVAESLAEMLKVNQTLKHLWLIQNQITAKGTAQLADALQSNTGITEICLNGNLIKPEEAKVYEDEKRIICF

PBMC [8] = test: Immunostimulatory activity in human PBMC assessed as increase in TNF-alpha release at 2 uM after 18 hrs in presence of LPS by flow cytometry relative to control; format: functional
[9] = Stability in HEK293 cells at 2 uM up to 18 hrs by LC-MS analysis; format: ADME, cell-based; conditions: human, hek293, 18 h
[10] = Cytotoxicity against HEK-Blue cells over-expressing NOD2 assessed as residual metabolic activity at 20 uM after 18 hrs by CellTiter 96 aqueous one solution cell proliferation assay relative to control; format: ADME, cell-based; conditions: human, read-out: Activity
[11] = Drug metabolism in HEK293 cells assessed as retention time at 2 uM by LC-MS analysis; format: ADME, cell-based; conditions: human, hek293, 2 µM
[12] = Pyrogenic activity in Atlantic horseshoe crab blood limulus amebocyte lysate by bacterial endotoxin test; format: ADME; conditions: limulus polyphemus
PBMC [13] = test: Immunostimulatory activity in human PBMC assessed as increase in IL-4 release at 2 uM after 18 hrs in presence of LPS by flow cytometry; format: functional, cell-based
PBMC [14] = test: Immunostimulatory activity in human PBMC assessed as increase in IL-2 release at 2 uM after 18 hrs in presence of LPS by flow cytometry; format: functional, cell-based
Mus musculus = test: Immunoadjuvant activity in ovalbumin-induced NIH/OlaHsd mouse model of adjuvancy assessed as induction of ovalbumin-specific humoral immune response by measuring increase in anti-OVA IgG level in serum at 200 ug, sc using liposome encapsulated compound measured on day 7 post second booster by ELISA; format: functional, organism-based
PBMC [15] = test: Immunostimulatory activity in human PBMC assessed as increase in IL-10 release at 2 uM after 18 hrs by flow cytometry; format: functional, cell-based
PBMC [16] = test: Immunostimulatory activity in human PBMC assessed as increase in IL-6 release at 2 uM after 18 hrs by flow cytometry; format: functional, cell-based
[17] = Drug level in HEK293 cells cytosol at 2 uM after 18 hrs by LC-MS analysis; format: ADME, cell-based; conditions: human

CCOC(=O)CC[C@@H](NC(=O)[C@@H](NC(=O)CNC(=O)/C=C/c1ccc(O)c(OC)c1)C(C)C)C(=O)OCC
Activity (PBMC [1]): Active | Activity (PBMC [2]): Active | fold change (FC) (PBMC [3]): 4 | fold change (FC) (PBMC [4]): 5 | Drug uptake [5]: 40% | Activity (PBMC [6]): Active | Activity [7]: inactive | fold change (FC) (PBMC [8]): 3 | Stability [9]: Stable | viability at 18 h, 20 µM [10]: > 80% | Retention_time [11]: 3.53 min | Activity [12]: Non-Toxic | Activity (PBMC [13]): Active | Activity (PBMC [14]): Active | Activity (Mus musculus): Active | Activity (PBMC [15]): Active | Activity (PBMC [16]): Active | Drug uptake [17]: 0.13 µM
